According to patent US10624867B2, “Transdermally-delivered combination drug therapy for pain” (BioChemics, Inc., priority 2017, dated 2020):

Key:
[1] = tested on: CFA inflammation-induced mechanical hyperalgesia; experiment: CFA inflammation model, mechanical response (von Frey stimulation), set A; format: in vivo, Sprague-Dawley rats; details: CFA rats
Source text: (§1) Two parallel studies (two arms) were done, each with four treatment groups, with four Sprague-Dawley rats per group. The rats used were male rats weighing 175-200 grams. Half of the rats were given injections of 1:1 complete Freund's adjuvant (CFA) on day 0 to produce long-term inflammation of the left hindpaw; the other half of the rats were given spared nerve injury (SNI, transection of 2 of 3 branches of the sciatic nerve) in the lower thigh on day 0.
(§2) Before treatments, rats' baseline response thermal latencies (on a glass surface suspended above a moveable heat lamp) or mechanical thresholds (on a wire mesh surface suspended above a moveable electronic von Frey stimulator) were determined after 15 min acclimatization on the thermal or mechanical testing apparatuses.
(§3) The CFA model of persistent inflammatory hyperalgesia in one hindpaw of the rats was utilized (see Gold and Gebhart, Nature Medicine 16: 1248-1257, 2010). This model produces edema, reddening, inflammation, and behavioral hypersensitivity. Experimental groups of rats were anesthetized with isoflurane before receiving an intraplantar injection into the left hindpaw of 100 μl of CFA (1:1 with sterile PBS) using a sterile 0.5 ml syringe. The CFA model produced inflammatory signs accompanied by thermal and mechanical hyperalgesia in the injected hindpaw within six to eight hours. The hypersensitivity peaks at 3 days, which was the first testing day of the analgesic topical formulations in the CFA model.
(§4) One of four treatments was applied to each rat on days 3, 7 and 11 after CFA injection or on days 7, 14 and 21 after SNI application. […] For the formulations with ibuprofen and/or gabapentin, the formulation also contained vasodilators arginine and methyl nicotinate, chelator EDTA, solvents dimethyl acetamide and water, osmolyte potassium hydroxide, lipids soy bean oil and olive oil, and various other excipients including eucalyptol, gelcarin GP-379NF, glyceryl monostearate, menthol, methyl paraben, propylparaben, phenoxyethanol, permulen TR-1, phospolipon 90H, ST elastomer, urea, and Vitamin E TPGS.
For application of the topical formulation, the rats were anesthetized with isoflurane for 30 min. while the creams were applied to both hindpaws to minimize oral absorption as described in Nozaki-Taguchi et al., Anesthesiology 90: 225-234, 1999; Iadarola et al., NIDA Res. Monogr. 75: 406-409, 1986. […]
In these studies, the sensory responsiveness to thermal (radiant heat) stimuli was assessed in terms of time to elicit paw withdrawal. […] Sensory responses to mechanical stimulus (von Frey stimulation) were also assessed prior to CFA injection and following several days after inflammation (FIGS. 2A-2C) or nerve injury (FIGS. 4A-5C). […]

[2] = tested on: Complete Freund's Adjuvant (CFA)-induced thermal hyperalgesia; experiment: CFA inflammation model, thermal response (paw withdrawal latency to radiant heat), set A; format: in vivo, Sprague-Dawley rats; details: for thermal antihyperalgesia: topical cream to hindpaw, day 3 at 2 and 4 hours after treatment
Method: Baselines were established for all rats for thermal response latency before intraplantar (i.pl.) injection of the inflammatory agent. Three days after injection of the inflammatory agent (CFA), the degree of thermal hypersensitivity was determined followed by topical application to anesthetized rats of i) the drug-free cream, creams containing ii) ibuprofen, iii) gabapentin, and each the combination of ibuprofen with gabapentin using a topical cream optimized for deep skin penetration/vascular access. Six experimental groups were used in total Application of ibuprofen cream served both as an active pharmacological agent and positive control throughout these studies. The drug formulation and control cream (negative control) was applied to the glabrous side of the rat hindpaw using a previously published method. Nozaki-Taguchi, N. and T. L. Yaksh., Characterization of the Antihyperalgesic Action of a Novel Peripheral Mu-opioid Receptor Agonist-loperamide, Anesthesiology, 90: 225-234, 1999; Iadarola, M. J., et al., Increased Spinal Cord Dynorphin mRNA During Peripheral Inflammation, NIDA Re.s Monogr., 75: 406-409, 1986.
Rats were isoflurane-anesthetized (1-2%) and the cream (0.2 g) applied gently with a finger for 1 minute to the glabrous skin of the hindpaw. For low drug concentrations, 5% formulations of all drugs were. For high drug concentrations, 10% cream formulations were employed. […] Upon recovery from anesthesia (within 10 minutes of cessation of anesthetic), rats were moved to plexiglass enclosures for sensory assessment. Efficacy was initially tested at 1, 2, 4, 8, 24 hours after cream treatment; depending on initial results. Time was revised to track the onset and offset of drug effects.
as §1, §2, §3
as §4, with “TPGS. […]” for “TPGS.”

[3] = day 11 at 2 hours after treatment
[4] = day 12 at 2 hours after treatment
[5] = CFA rats, days 7 and 12 post-CFA

Compound | efficacy against mechanical hyperalgesia, agent given alone [1, 3] | efficacy against mechanical hyperalgesia, agent given alone [1, 4] | reversal of hyperalgesia ([2]; CFA rats, cream applied for 20 minutes, 1 hour after treatment on day 3 post-CFA) | duration of beneficial impact of the drug ([2]; CFA rats, day 3 post-CFA) [h] | hyperalgesia after 24 hours ([2]; CFA rats, day 3 post-CFA, 24 hours after treatment) | statistical significance of the effect ([2]; CFA rats, day 3 post-CFA, vs vehicle (ANOVA, Dunnett)) | thermal antihyperalgesia (possible efficacy) on later days ([2]; CFA rats, days 7 and 11 post-CFA) | thermal antihyperalgesia (possible efficacy) on later days [2, 5] | thermal antihyperalgesia ([2]; CFA rats) | reversal of thermal hypersensitivity ([2]; FIGS. 1A-1C, at some time points during the testing period) | suppression of thermal hyperalgesia ([2]; CFA rats, transdermal delivery, drug alone)
CC(C)Cc1ccc(C(C)C(=O)O)cc1 (stereo not drawn) [ibuprofen, 2-[4-(2-methylpropyl)phenyl]propanoic acid] | efficacious | efficacious | completely reversed | 4 | completely returned to the baseline level | statistically significant | not repeated | not repeated | borderline significant | significant reversal | 
NCC1(CC(=O)O)CCCCC1 [gabapentin] | efficacious | efficacious |  |  |  |  |  | not repeated | borderline significant |  | failed to suppress
